# Patent publication US8889671B2, “Compounds and methods for treating bacterial infections” (AstraZeneca AB, priority 2013, dated 2014)
# pIC50: −log10 of the molar value. Read-outs that look alike come from different tables or passages of the source.
# Legend:
# Staphylococcus aureus = experiment: Susceptibility testing (MIC) Assay 1, broth microdilution; type: cell-based
# Streptococcus pneumoniae = experiment: as above; type: cell-based
# Streptococcus pyogenes = experiment: as above; type: cell-based; conditions: in vivo strain, read-out: Spy MIC
# Escherichia coli = experiment: Susceptibility testing (MIC) Assay 2, broth microdilution; type: cell-based
# Haemophilus influenzae = experiment: as above; type: cell-based
# Klebsiella pneumoniae = experiment: as above; type: cell-based
# Pseudomonas aeruginosa = experiment: as above; type: cell-based; conditions: for MIC: PAO1, read-out: Pae MIC
# [1] = target: Escherichia coli DNA gyrase A/B tetramer (Escherichia coli (strain K12), UniProt P0AES4+P0AES6); experiment: DNA gyrase supercoiling activity fluorescence polarisation assay; type: biochemical; conditions: 0.3 mM ATP
# In short: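 Relaxed triplex-forming plasmid (130 micrograms/mL) supercoiled by 5 nM gyrase A/B tetramer in Tris-HCl pH 7.5 buffer with 4 mM MgCl2 and 0.3 mM ATP, ~30 min, ambient temperature. Quenched with 5′-BODIPY-FL triplex probe at pH 3.5; fluorescence anisotropy read after 60 min. IC50 by nonlinear regression against two control reactions.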
# [2] = Staphylococcus aureus, in vivo strain, MRQR, read-out: Sau(e) MIC
# [3] = Eco Gyr FP Mean IC50, E. coli DNA gyrase supercoiling
# [4] = Staphylococcus aureus, Staphylococcus aureus in vivo strain, MSQS, read-out: Sau(d) MIC
# [5] = Staphylococcus aureus, serum, read-out: Sau(f) MIC
# [6] = in vivo strain (footnote b), read-out: Spn(b) MIC
# [7] = in vivo strain (footnote c), read-out: Spn(c) MIC
# [8] = Streptococcus pyogenes, Streptococcus pyrgenes
# [9] = ATCC51907, Haemophilus influenzae, ATCC 51907, in vivo strain, read-out: Hin MIC
# [10] = clinical isolate, mucoid, read-out: Kpn MIC
Compound,MIC (Staphylococcus aureus; [2]),"pIC50 [1, 3]",MIC (Staphylococcus aureus; [4]) [µM],MIC (Staphylococcus aureus; [5]) [µM],MIC (Streptococcus pneumoniae; [6]) [µM],MIC (Streptococcus pneumoniae; [7]) [µM],MIC (Streptococcus pyogenes; [8]) [µM],"MIC (Escherichia coli; K12, read-out: Eco MIC) [µM]",MIC (Haemophilus influenzae; [9]) [µM],MIC (Klebsiella pneumoniae; [10]) [µM],MIC (Pseudomonas aeruginosa) [µM],further results
"C[C@@H]1CN2c3c(cc4c(N5C(=O)O[C@H](C)[C@@H]5CF)noc4c3F)CC3(C(=O)NC(=O)NC3=O)[C@H]2[C@H](C)O1 [Example 78, (2R,4S,4aS)-11-Fluoro-8-((4R,5R)-4-(fluoromethyl)-5-methyl-2-oxooxazolidin-3-yl)-2,4-dimethyl-2,4,4a,6-tetrahydro-1H,1′H-spiro[isoxazolo[4,5-g][1,4]oxazino[4,3-a]quinoline-5,5′-pyrimidine]-2′,4′,6′(3′H)-trione]",2 µg/mL,6.36,,,,,,,,,,"MIC (Staphylococcus aureus; Staphylococcus aureus, ATCC29213, Staphylococcus aureus, in vivo strain, ATCC 29213, read-out: Sau(d) MIC): 1 µg/mL; MIC (Staphylococcus aureus; Staphylococcus aureus, MRSA, Staphylococcus aureus, in vivo strain, MRSA, read-out: Sau(f) MIC): 1 µg/mL; MIC (Streptococcus pneumoniae; ATCC49619, Streptococcus pneumoniae, ATCC 49619, read-out: Spn(c) MIC): 2 µg/mL; MIC (Streptococcus pneumoniae; in vivo strain, read-out: Spn(b) MIC): 2 µg/mL; MIC (Streptococcus pyogenes; Streptococcus pyogenes, Streptococcus pyrogenes): 1 µg/mL; MIC (Escherichia coli; ATCC25922, Escherichia coli, in vivo strain, ATCC 25922, read-out: Eco(b) MIC): 16 µg/mL; MIC (Escherichia coli; ATCC35218, Escherichia coli, ATCC 35218, read-out: Eco(c) MIC): 32 µg/mL; MIC (Haemophilus influenzae; ATCC49247, Haemophilus influenzae, ATCC 49247, read-out: Hin MIC): 2 µg/mL; MIC (Klebsiella pneumoniae; ATCC700603, ATCC 700603, read-out: Kpn(e) MIC): > 64 µg/mL; MIC (Klebsiella pneumoniae; clinical isolate, mucoid, read-out: Kpn(d) MIC): > 64 µg/mL; MIC (Pseudomonas aeruginosa; Pseudomonoas aeruginosa): > 64 µg/mL"
"C[C@@H]1CN2c3c(cc4c(N5C(=O)OC[C@H]5c5ccccc5)noc4c3F)CC3(C(=O)NC(=O)NC3=O)[C@H]2[C@H](C)O1 [Example 8, (2R,4S,4aS)-11-Fluoro-2,4-dimethyl-8-[(4R)-2-oxo-4-phenyl-1,3-oxazolidin-3-yl]-1,2,4,4a-tetrahydro-2′H,6H-spiro[1,4-oxazino[4,3-a][1,2]oxazolo[4,5-g]quinoline-5,5′-pyrimidine]-2′,4′,6′(1′H,3′H)-trione]",12 µM,5.14,6.2,200,50,50,12,> 200,12,> 200,> 200,
C[C@@H]1CN2c3c(cc4c(N5C(=O)OC[C@@H]5C5CCOCC5)noc4c3F)CC3(C(=O)NC(=O)NC3=O)[C@H]2[C@H](C)O1 [Example 28],50 µM,,,50,25,25,,>200,,>200,,"MIC (Staphylococcus aureus; Staphylococcus aureus in vivo strain, MSQS, read-out: Sau(d) MIC): 25 µM; MIC (Streptococcus pyogenes; Streptococcus pyrgenes): 25 µM; MIC (Haemophilus influenzae; ATCC 51907, in vivo strain, read-out: Hin MIC): 25 µM; Pae MIC (Pseudomonas aeruginosa; PAO1): >200 µM; pIC50 ([1]; E. coli DNA gyrase supercoiling, read-out: Eco Gyr FP Mean IC50): < 5.68"
C[C@@H]1CN2c3c(cc4c(N5C(=O)OC[C@@H]5[C@H](O)CO)noc4c3F)CC3(C(=O)NC(=O)NC3=O)[C@H]2[C@H](C)O1 [Example 73],100 µM,6.47,25,25,0.78,3.1,0.78,> 200,6.2,> 200,> 200,
COC[C@H]1CN(c2noc3c(F)c4c(cc23)CC2(C(=O)NC(=O)NC2=O)[C@H]2[C@H](C)O[C@H](C)CN42)C(=O)O1 [Example 36],3.1 µM,6.23,0.78,1.6,1.6,1.6,0.78,100,1.6,> 200,> 200,
C#C[C@H]1COC(=O)N1c1noc2c(F)c3c(cc12)CC1(C(=O)NC(=O)NC1=O)[C@H]1[C@H](C)O[C@H](C)CN31 [Example 65],1.6 µM,6.92,0.39,1.6,0.78,1.6,0.78,3.1,0.78,200,> 200,
C[C@@H]1CN2c3c(cc4c(N5C(=O)OC[C@@H]5[C@@H](O)CO)noc4c3F)CC3(C(=O)NC(=O)NC3=O)[C@H]2[C@H](C)O1 [Example 72],50 µM,6.54,25,25,0.78,3.1,0.39,> 200,3.1,> 200,> 200,
CC[C@@H]1COC(=O)N1c1noc2c(F)c3c(cc12)CC1(C(=O)NC(=O)NC1=O)[C@H]1[C@H](C)O[C@H](C)CN31 [Example 7],12 µM,5.01,6.2,25,25,12,6.2,200,12,> 200,> 200,
